The text below walks through data of patent US11732259B2, “Peptide oligonucleotide conjugates” (Sarepta Therapeutics, Inc., priority 2011, dated 2023).

For one data set, the system named is dystrophin mRNA exon 23. The experiment in a line: Exon 23 skipping in MDX mice, end-point PCR on muscle RNA.
Data set [1] is classed as in vivo, mouse. As for the experimental part: Mice were treated with the conjugates described in Example 30, and KIM-1 levels, BUN levels and survival rate were determined according to the general procedures described in Example 32 below and known in the art. […]. The day of dosing on the study was designated as Study Day 1. Conjugate was administered via tail vein as a slow push bolus (˜5 seconds). All animals were dosed over two days. Groups 1-8 were dosed on the first day and Groups 9-16 were dosed on the second day. Treatment Groups (TG) 13-16 were dosed per the table above. […] The first 2 TG of each conjugate were dosed per the table above. If all animals in 100 mg/kg group died then the remaining TGs of that test article would not be dosed and the study would end. If at least one animal survived 2 hours post-dose in the 100 mg/kg group, then the 150 mg/kg group was dosed. If all animals in the 150 mg/kg group died then the remaining TGs of that test article would not be dosed and the study would end. […]
Any animal showing signs of distress, particularly if death appeared imminent was humanely euthanized according to Numira Biosciences Standard Operating Procedures. Body weights were recorded on the day after arrival, the day of dosing, and the day of necropsy. Detailed clinical observations were conducted and recorded at 0 minutes, 15 minutes, and 2 hours post-dose to assess tolerability of injections.

A further data set relates to KIM-1. The class given is in vivo, mouse. Particulars: Example 32, FIG. 10; C57/BL6 mice, single i.v. tail vein injection, kidney qRT-PCR vs GAPDH. As for the experimental part:
Mice were treated with the conjugates described in Example 30, and KIM-1 levels, BUN levels and survival rate were determined according to the general procedures described in Example 32 below and known in the art. […]. The right and left kidneys were collected. Tissues were collected within minutes or less of euthanasia. All instruments and tools used were changed between treatment groups. All tissues were flash frozen and stored at <−70° C. as soon as possible after collection.
Kidney injury marker data was obtained as follows. RNA from mouse kidney tissue was purified using Quick Gene Mini80 Tissue Kit SII (Fuji Film). Briefly, approximately 40 mg of tissue was added to 0.5 ml lysis buffer (5 μl […] in 0.5 ml lysis buffer) in a MagnaLyser Green Bead vial (Roche) and homogenized using MagNA Lyser (Roche) with 2 sets of 3×3800 RPM and 3 sets of 1×6500 RPM.
Samples were cooled on ice 3-4 minutes between each low speed set and between each higher speed run. Homogenates were centrifuged 5 minute at 400×g at room temperature. The homogenate was immediately processed for RNA purification according to the Quick Gene Mini80 protocol. […] Total RNA was quantitated with a NanoDrop 2000 spectrophotometer (Thermo Scientific). […]
Analysis was performed using ΔΔCt method. […] Fold change range calculated: 2^−(ΔΔCt+SD) to 2^−(ΔΔCt-SD). […]
On the technique in general: In qPCR the cycle at which signal appears reflects the starting amount.

Data set [2] deals with RSV. Particulars: cultures of two human airway cell lines (Lai, Stein et al. 2008); cited from earlier work.
Data set [3] concerns RSV. Particulars: BALB/c mice, intranasal treatment before RSV inoculation, cited from earlier work.
Data set [4] has as its system exon 23 of the dystrophin gene. Particulars: in vivo; cited from earlier work.

{EG3} = triethylene glycol 5' cap structure on the morpholino oligomer

Method for dystrophin mRNA exon 23: MDX mice were dosed once (50 mg/kg) by tail vein injection with one of the following conjugates:
One week post-injection, the MDX mice were sacrificed and RNA was extracted from various muscle tissues. End-point PCR was used to determine the relative abundance of dystrophin mRNA containing exon 23 and mRNA lacking exon 23 due to antisense-induced exon skipping. Percent exon 23 skipping is a measure of antisense activity in vivo.

For the substance 5′-EG3-M23D-G(R)6 [NG-11-0009], the “Percent exon 23 skipping, diaphragm” value with dystrophin mRNA exon 23 (dosed once 50 mg/kg tail vein, one week post-injection, diaphragm (FIGS. 5B, 6B), amongst the arginine series) is on record as “highest efficacy”. Besides, the “Percent exon 23 skipping, quadriceps” value in the data set with dystrophin mRNA exon 23 (dosed once 50 mg/kg tail vein, one week post-injection, quadriceps (FIGS. 5A, 6A), amongst the arginine series) was “highest efficacy”. Besides, the “Doses at which all mice survived” value in data set [1] (Example 31, data not shown) is “up to 400 mg/kg”. For the same substance, in the data set with KIM-1, the KIM concentrations entry is “lowest”.
For “TAATGGGATCCATTTTGTCCC (all phosphorodiamidate morpholino (PMO); peptide-conjugated morpholino (PPMO), peptide not given here) [RSV-AUG-2, peptide conjugated PMO (PPMO) targeting the translation start-site region of RSV L mRNA]”, the “Reduction of viral titers” value with RSV [2] is recorded as over 2.0 log10. In addition, the “Reduction in viral titer in lung tissue” value with RSV [3] (day 5 postinfection) is given as 1.2 log10. The Pulmonary inflammation result in the data set on RSV [3] (day 7 postinfection) is “attenuated”.
For the substance 5′-EG3-M23D-G(R)8 [NG-11-0216], in data set [1] (Example 31, FIG. 7B, compared with the XB linked conjugate / amongst the arginine polymers), the Survival rate entry is listed as “least tolerated of the arginine polymers”.
As to “5′-EG3-M23D-BX(RXRRBR)2 (GGCCAAACCTCGGCTTACCTGAAAT; all phosphorodiamidate morpholino (PMO), 5' {EG3}; morpholino, carrier peptide BX(RXRRBR)2 conjugated at 3' end) [AVI-5225, known peptide-morpholino oligomer conjugate used as comparator]”, the “Dose response of exon 23 skipping” value with dystrophin mRNA exon 23 (one week post-treatment, AVI-5225 compared with the other conjugates) is reported as “similar”. Also, the “Activity in the MDX mouse model for DMD” value in data set [4] is on record as “activity”.
